pIC50: −log10 of the molar value.
Columns and labels:
RET = RET (Homo sapiens, UniProt P07949); experiment: Enzyme inhibition activity, RET; type: biochemical
Method: (§1) Operating as described above in the tests of inhibition activity on enzymes, or in an analogous way, the following data were obtained for 2-methyl-N-{4-[2-(methylamino)-2-oxoethyl]-1-oxo-2,9-dihydro-1H-beta-carbolin-6-yl}hexanamide (Compound XIIIh). The same compound was tested for cytotoxic activity on cells as described below.

PDK1 = target: T1, PDK1 (Homo sapiens, UniProt O15530); experiment: Enzyme inhibition activity, PDK1; type: biochemical
T1 sequence (O15530 1-556): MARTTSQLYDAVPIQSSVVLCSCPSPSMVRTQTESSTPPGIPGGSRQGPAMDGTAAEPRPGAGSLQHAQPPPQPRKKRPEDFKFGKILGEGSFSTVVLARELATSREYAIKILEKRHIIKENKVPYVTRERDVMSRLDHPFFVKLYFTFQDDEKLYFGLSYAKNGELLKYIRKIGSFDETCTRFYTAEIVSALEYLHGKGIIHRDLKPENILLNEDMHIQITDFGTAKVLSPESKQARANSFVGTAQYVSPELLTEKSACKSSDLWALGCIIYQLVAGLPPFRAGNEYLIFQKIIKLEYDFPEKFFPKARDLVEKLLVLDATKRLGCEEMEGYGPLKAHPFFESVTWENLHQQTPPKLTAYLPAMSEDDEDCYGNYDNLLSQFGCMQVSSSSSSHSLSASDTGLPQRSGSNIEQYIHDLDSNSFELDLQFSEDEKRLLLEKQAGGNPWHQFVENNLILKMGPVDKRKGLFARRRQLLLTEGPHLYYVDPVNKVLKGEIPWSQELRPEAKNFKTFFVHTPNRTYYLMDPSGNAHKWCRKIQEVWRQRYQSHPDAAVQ
Method: as §1

PKAalpha = PKAalpha (Homo sapiens, UniProt P17612); experiment: Enzyme inhibition activity, PKAalpha; type: biochemical
Method: as §1

AUR1 = AUR1 (Homo sapiens, UniProt Q96GD4); experiment: Enzyme inhibition activity, AUR1; type: biochemical
AUR1, sequence (Q96GD4 whole entry): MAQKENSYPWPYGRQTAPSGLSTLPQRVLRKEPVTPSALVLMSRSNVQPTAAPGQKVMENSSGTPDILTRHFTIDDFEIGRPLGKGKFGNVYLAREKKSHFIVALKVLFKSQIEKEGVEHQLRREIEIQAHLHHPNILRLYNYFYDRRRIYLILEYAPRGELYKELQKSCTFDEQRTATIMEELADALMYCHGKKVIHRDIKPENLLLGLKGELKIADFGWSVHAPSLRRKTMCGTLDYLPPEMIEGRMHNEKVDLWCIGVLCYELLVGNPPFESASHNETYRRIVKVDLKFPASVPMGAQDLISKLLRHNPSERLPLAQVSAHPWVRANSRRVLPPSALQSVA
Method: as §1

VEGFR3 = VEGFR3 (Homo sapiens, UniProt P35916); experiment: Enzyme inhibition activity, VEGFR3; type: biochemical
Method: as §1

AUR2 = target: T2, AUR2 (Homo sapiens, UniProt O14965); experiment: Inhibition assay of Aurora-2 activity; type: biochemical; settings: Enzyme AUR2
T2 sequence (O14965 1-403): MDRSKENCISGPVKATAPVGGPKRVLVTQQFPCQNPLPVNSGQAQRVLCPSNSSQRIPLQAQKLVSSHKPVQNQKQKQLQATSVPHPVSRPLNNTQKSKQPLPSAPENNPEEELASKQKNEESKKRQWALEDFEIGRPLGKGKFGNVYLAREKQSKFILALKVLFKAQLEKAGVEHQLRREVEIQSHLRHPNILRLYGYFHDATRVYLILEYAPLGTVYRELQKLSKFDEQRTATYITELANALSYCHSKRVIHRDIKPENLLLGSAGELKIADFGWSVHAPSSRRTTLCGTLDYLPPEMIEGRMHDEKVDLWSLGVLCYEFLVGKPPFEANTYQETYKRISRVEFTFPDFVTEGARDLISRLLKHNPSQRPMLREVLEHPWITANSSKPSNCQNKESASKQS
Method: Inhibition assay of Aurora-2 activity
The inhibiting activity and the potency of selected compounds was determined through a method of assay based on the use of the streptavidin scintillation proximity assay beads (amershampharmacia biotech) run in a 96 well plates. At the end of the reaction, the biotinylated peptide substrate was captured with the beads and subsequently allowed to stratify using CsCl. When a radioactivity labeled phosphate moiety was transferred by the kinase to the beads-bound peptide, light emitted was measured in a scintillation counter.
The inhibition assay of Aurora-2 activity was performed in 96 wells plate according to the following protocol:
8 µM biotinylated peptide (4 repeats of LRRWSLG), 10 µM ATP (0.5 uCi P^33g-ATP), 10 nM Aurora2, 10 µM inhibitor in a final volume of 60 µl buffer (HEPES 50 mM pH 7.0, MgCl2 10 mM, 1 mM DTT, 0.125 mg/ml BSA, 3µM orthovanadate) were added to each well of a 96 U bottom well plate. After 30 minutes at room temperature incubation, reaction was stopped and biotinylated peptide captured by adding 100 µl of bead suspension.
100 µl of CsCl 7.5 M were added to each well and let stand one hour before radioactivity was counted in the Top-Count instrument.
Results: data were analyzed and expressed as % inhibition referred to total activity of enzyme (=100%). […]

A2780 = experiment: Cytotoxic activity on cells (cell proliferation, cellular ATP monitoring); type: cell-based; settings: Homo sapiens; Cell Type A2780; concentration inhibiting cell proliferation by 50%; 72 hours treatment
Method: Exponentially growing cells A2780 were seeded and incubated at 37°C in a humidified 5% CO2 atmosphere. After 24 hours, scalar doses of test compound were added to the medium and cells were incubated for additional 72 hours.
At the end of treatment, cell proliferation was determined by a cellular ATP monitoring system which consists of a mixture of luciferase and luciferin, reconstituted in a lysis buffer; 100 µL/well of this solution were added to the cells. The plates were then shaken for 2 minutes in an orbital shaker and were read in a luminometer, with the signal linearly proportional to the cell number.

FGFR1 = FGFR1 (Homo sapiens, UniProt P11362); experiment: Enzyme inhibition activity, FGFR1; type: biochemical
FGFR1, sequence (P11362 22-822, species assumed): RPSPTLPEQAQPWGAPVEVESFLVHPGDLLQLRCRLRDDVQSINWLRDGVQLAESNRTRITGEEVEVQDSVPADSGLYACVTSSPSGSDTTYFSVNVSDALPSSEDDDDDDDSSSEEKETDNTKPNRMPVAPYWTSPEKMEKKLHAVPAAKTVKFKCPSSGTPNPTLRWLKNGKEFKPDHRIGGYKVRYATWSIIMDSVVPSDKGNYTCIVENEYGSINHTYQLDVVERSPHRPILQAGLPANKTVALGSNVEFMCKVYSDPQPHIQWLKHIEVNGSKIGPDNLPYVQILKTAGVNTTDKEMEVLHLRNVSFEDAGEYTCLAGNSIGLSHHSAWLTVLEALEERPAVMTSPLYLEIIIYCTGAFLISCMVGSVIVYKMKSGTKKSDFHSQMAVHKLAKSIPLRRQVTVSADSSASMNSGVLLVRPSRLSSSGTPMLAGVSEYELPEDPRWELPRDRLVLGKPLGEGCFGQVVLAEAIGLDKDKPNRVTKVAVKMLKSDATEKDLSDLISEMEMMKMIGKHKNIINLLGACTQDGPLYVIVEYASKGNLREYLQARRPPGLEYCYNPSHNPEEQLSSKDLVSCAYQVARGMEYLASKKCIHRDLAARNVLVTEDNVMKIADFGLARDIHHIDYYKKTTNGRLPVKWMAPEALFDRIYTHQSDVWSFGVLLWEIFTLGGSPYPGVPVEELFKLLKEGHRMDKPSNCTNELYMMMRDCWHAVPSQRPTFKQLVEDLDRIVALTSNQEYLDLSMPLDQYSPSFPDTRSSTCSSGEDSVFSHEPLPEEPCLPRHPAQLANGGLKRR
Method: as §1

CDK2/CYCA = target: T3, CDK2/CYCA (Homo sapiens, UniProt P24941); experiment: Inhibition assay of Cdk2/Cyclin A activity; type: biochemical; settings: Enzyme CDK2/CYCA
T3 construct: made in house
Method: Inhibition assay of Cdk2/Cyclin A activity
1.5 µM histone H1 substrate, 25 µM ATP (0.2 µCi P33γ-ATP), 30 ng of baculovirus co-expressed Cdk2/Cyclin A, 10 µM inhibitor in a final volume of 100 µl buffer (TRIS HCl 10 mM pH 7.5, MgCl2 10 mM, 7.5 mM DTT) were added to each well of a 96 U bottom well plate. After 10 min at 37 °C incubation, reaction was stopped by 20 µl EDTA 120 mM.
100 µl were transferred from each well from the kinase reaction to MultiScreen plate, to allow substrate binding to phosphocellulose filter. Plates were then washed 3 times with 150 µl/well PBS Ca^++/Mg^++ free and filtered by MultiScreen filtration system.
Filters were allowed to dry at 37°C, then 100 µl/well scintillant were added and 33P labeled histone H1 was detected by radioactivity counting in the Top-Count instrument. Results: data were analyzed and expressed as % inhibition referred to total activity of enzyme (=100%).
All compounds showing inhibition ≥ 50 % were further analyzed in order to study and define potency (IC50) as well as the kinetic-profile of inhibitor through Ki calculation. IC50 determination: the protocol used was the same described above, where inhibitors were tested at different concentrations ranging from 0.0045 to 10 µM. […]

JAK3 = target: T4, JAK3 (Homo sapiens, UniProt P52333); experiment: Enzyme inhibition activity, JAK3; type: biochemical
T4 sequence (P52333 1-1124): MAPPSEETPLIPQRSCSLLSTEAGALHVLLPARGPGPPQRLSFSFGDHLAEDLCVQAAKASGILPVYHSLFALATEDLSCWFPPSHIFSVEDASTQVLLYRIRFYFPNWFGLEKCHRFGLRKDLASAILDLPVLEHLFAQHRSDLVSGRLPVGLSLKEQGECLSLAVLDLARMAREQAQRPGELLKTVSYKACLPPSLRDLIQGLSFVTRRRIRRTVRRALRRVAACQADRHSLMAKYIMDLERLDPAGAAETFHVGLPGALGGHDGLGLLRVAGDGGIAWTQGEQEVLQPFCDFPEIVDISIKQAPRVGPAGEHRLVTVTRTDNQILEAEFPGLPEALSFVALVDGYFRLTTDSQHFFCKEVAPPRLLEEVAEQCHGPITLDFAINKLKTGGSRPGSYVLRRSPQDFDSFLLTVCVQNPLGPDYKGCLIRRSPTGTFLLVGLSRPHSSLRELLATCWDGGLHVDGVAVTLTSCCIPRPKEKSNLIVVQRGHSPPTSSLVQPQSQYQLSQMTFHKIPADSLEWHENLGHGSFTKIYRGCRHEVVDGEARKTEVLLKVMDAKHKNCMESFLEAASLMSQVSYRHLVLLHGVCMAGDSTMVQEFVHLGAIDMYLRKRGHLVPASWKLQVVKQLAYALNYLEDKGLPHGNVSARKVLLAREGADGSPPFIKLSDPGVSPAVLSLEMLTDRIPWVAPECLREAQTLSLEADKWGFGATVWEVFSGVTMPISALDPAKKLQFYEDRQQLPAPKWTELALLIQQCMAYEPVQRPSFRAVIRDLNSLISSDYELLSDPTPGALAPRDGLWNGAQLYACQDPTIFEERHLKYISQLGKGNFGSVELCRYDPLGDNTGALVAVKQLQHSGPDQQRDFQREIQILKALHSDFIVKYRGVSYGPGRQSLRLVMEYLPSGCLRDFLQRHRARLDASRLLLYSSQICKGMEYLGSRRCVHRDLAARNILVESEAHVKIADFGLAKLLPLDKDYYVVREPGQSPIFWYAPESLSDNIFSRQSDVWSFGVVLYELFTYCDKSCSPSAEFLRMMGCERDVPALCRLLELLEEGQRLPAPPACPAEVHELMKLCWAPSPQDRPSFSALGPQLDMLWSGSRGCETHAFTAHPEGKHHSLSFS
Method: as §1

GSK3beta = GSK3beta (Homo sapiens, UniProt P49841); experiment: Enzyme inhibition activity, GSK3beta; type: biochemical
GSK3beta, sequence (P49841 whole entry, species assumed): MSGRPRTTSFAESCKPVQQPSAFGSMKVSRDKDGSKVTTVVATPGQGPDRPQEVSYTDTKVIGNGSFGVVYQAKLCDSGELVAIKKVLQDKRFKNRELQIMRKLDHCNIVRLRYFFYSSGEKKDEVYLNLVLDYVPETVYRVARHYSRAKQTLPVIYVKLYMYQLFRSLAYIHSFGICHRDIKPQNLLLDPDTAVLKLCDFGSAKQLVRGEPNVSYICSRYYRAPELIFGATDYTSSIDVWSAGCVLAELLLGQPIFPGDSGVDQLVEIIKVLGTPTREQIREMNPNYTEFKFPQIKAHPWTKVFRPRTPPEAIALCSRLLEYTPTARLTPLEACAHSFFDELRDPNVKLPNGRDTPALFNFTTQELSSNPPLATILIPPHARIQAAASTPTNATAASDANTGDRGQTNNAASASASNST
Method: as §1

VEGFR2 = VEGFR2 (Homo sapiens, UniProt P35968); experiment: Enzyme inhibition activity, VEGFR2; type: biochemical
VEGFR2, sequence (P35968 20-1356, species assumed): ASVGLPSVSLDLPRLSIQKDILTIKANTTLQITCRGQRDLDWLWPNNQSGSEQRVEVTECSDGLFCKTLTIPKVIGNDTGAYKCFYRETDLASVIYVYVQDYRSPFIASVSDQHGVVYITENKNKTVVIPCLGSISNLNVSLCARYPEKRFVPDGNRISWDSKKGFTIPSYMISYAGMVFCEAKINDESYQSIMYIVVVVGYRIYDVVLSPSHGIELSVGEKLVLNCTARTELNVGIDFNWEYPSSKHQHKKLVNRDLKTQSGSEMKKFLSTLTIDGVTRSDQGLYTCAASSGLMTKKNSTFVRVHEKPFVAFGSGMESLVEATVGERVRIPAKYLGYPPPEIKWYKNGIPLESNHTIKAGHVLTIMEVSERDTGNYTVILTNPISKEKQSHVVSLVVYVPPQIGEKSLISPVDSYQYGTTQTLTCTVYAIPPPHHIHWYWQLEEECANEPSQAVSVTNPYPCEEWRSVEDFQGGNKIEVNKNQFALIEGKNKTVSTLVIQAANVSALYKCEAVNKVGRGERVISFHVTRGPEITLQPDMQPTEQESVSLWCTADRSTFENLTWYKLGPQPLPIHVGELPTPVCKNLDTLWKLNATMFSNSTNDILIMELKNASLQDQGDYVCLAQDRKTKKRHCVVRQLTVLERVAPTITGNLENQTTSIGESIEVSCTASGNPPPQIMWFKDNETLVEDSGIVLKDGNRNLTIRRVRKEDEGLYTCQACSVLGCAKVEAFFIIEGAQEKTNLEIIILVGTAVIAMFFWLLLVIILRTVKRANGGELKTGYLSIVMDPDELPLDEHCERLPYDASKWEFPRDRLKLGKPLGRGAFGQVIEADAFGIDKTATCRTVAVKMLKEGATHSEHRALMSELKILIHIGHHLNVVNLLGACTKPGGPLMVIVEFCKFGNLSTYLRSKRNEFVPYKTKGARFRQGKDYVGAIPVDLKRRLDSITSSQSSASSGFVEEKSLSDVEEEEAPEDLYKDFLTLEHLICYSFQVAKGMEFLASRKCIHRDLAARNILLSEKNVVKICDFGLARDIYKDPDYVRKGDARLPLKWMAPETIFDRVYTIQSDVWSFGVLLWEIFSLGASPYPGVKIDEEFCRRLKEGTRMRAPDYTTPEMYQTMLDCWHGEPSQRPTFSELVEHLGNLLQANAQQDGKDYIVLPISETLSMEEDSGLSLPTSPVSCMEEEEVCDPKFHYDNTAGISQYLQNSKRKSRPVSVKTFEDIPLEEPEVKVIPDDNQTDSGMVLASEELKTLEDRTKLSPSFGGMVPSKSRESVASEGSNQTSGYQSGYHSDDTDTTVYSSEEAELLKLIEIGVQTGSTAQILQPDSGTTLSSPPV
Method: as §1

RET, sequence (P07949 29-1114, species assumed): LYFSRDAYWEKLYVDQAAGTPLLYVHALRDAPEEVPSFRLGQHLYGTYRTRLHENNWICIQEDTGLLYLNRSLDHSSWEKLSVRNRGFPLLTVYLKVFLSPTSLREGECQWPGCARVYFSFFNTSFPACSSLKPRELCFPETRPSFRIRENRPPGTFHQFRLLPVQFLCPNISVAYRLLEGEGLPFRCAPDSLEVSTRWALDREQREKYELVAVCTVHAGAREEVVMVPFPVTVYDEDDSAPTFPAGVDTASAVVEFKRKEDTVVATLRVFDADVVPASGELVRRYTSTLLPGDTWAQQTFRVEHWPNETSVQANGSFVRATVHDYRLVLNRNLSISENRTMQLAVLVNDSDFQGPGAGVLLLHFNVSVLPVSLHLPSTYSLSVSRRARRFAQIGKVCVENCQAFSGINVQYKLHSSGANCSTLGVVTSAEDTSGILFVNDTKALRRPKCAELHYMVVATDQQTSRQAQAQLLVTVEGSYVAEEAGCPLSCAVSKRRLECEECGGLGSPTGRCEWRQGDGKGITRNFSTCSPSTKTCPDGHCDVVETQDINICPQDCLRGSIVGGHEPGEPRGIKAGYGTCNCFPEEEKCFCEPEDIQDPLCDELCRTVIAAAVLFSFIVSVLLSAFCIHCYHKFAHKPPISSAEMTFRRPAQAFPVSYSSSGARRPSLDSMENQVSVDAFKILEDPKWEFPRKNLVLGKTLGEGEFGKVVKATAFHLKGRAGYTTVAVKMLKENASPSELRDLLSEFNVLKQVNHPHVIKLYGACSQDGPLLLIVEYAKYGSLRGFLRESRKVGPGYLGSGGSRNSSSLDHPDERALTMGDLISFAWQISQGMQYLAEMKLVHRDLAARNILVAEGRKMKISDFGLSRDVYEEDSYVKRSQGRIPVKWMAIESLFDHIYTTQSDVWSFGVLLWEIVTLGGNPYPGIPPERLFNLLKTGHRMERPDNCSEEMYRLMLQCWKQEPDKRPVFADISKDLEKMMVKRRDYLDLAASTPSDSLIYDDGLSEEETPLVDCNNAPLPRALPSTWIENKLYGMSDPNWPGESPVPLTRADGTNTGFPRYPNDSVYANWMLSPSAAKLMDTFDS

pIC50 (RET): 5.97
pIC50 (PDK1): 5.88
pIC50 (PKAalpha): 6.06
pIC50 (AUR1): 6.37
pIC50 (VEGFR3): 6.23
pIC50 (AUR2): 7.29
pIC50 (FGFR1): 5.60
pIC50 (CDK2/CYCA): 5.77
pIC50 (JAK3): 5.75
pIC50 (GSK3beta): 5.72
pIC50 (VEGFR2): 5.72
Compound: CCCCC(C)C(=O)Nc1ccc2[nH]c3c(=O)[nH]cc(CC(=O)NC)c3c2c1 (stereo not drawn) [Compound XIIIh, 2-Methyl-N-{4-[2-(methylamino)-2-oxoethyl]-1-oxo-2,9-dihydro-1H-beta-carbolin-6-yl}hexanamide]
pIC50 (A2780): 5.44

From patent publication EP2003129B1, “1H-Pyrido[3,4-B]indol-1-one and 2,3,4,9-Tetrahydro-1H-Beta-Carbolin-1-one Derivatives” (Nerviano Medical Sciences S.r.l., priority 2007, dated 2008)
